{"source": "patent US7731971B2", "about": "“Enhanced CTL epitope-containing HIV-1 reverse transcriptase polypeptides” (The United States of America as represented by the …, priority 2003, dated 2010)", "key": {"[1]": {"test_system": "vaccinia virus expressing a β-galactosidase protein (vSC8)", "parameters": "species or system HHD-2 mice", "settings": "mouse, in vivo"}, "[2]": {"test_system": "vaccinia virus expressing a reverse transcriptase protein of HIV (vCF21)", "parameters": "species or system HHD-2 mice", "settings": "mouse, in vivo"}}, "data": [{"sequence": "YLYQYMDDV", "values": [{"measurement": "protection against vaccinia strain (vSC8) that does not express RT", "setting": "[1]", "result": "Neither population of mice displayed protection"}, {"measurement": "protection against vCF21 infection", "setting": "[2]", "result": "only partially protected"}]}]}
